# US7829567B2, “Imino-indeno[1,2-c] quinoline derivatives, their preparation processes, and pharmaceutical compositions comprising the same” (Kaohsiung Medical University, priority 2007, dated 2010)
# Read-outs that look alike come from different tables or passages of the source.
# Assays:
# Assay type in all cases: cell-based
# [1] = test system: oral squamous cell carcinoma (SAS); experiment: In vitro anticancer assay (MTT), SAS; details: SAS cells, 48 hrs, mean ± spread, read-out: Anti-proliferative evaluation IC50, SAS
# Experimental: (§1) The resultant tetrazolium salt was then dissolved by the addition of dimethyl sulfoxide. Color was measured spectrophotometrically in a microtiter plate reader at 570 nm and used as a relative measure of viable cell number. The number of viable cells after treatment was compared to solvent and untreated control cells and used to determine the percent of control growth as (Abtreated/Abcontrol)×100, where Ab represents the mean absorbance (n=3). […] D. Heo et al. […] (+)-camptothecin (CPT) and doxorubicin hydrochloride (Dox) were used for comparison with the compounds according to this invention.
# [2] = test system: hepatocellular carcinoma (SKHep1); experiment: In vitro anticancer assay (MTT), SKHep1; details: 48 hrs, mean ± spread, read-out: Anti-proliferative evaluation IC50, SKHep1
# Experimental: as §1
# [3] = test system: human renal clear cell carcinoma; experiment: In vitro anticancer assay (MTT), RCC 768-O; details: RCC 768-O cells, 48 hrs, mean ± spread, read-out: Anti-proliferative evaluation IC50, RCC 768-O
# Experimental: as §1
# [4] = test system: esophageal carcinoma (CE81T); experiment: In vitro anticancer assay (MTT), CE81T; details: CE81T cells, 48 hrs, mean ± spread, read-out: Anti-proliferative evaluation IC50, CE81T
# Experimental: as §1
# [5] = test system: human stomach adenocarcinoma (AGS); experiment: In vitro anticancer assay (MTT), AGS; details: AGS cells, 48 hrs, mean ± spread, read-out: Anti-proliferative evaluation IC50, AGS
# Experimental: as §1
# [6] = test system: human cervical epithelioid carcinoma (HeLa); experiment: In vitro anticancer assay (MTT), HeLa; details: HeLa cells, 48 hrs, mean ± spread, read-out: Anti-proliferative evaluation IC50, HeLa
# Experimental: as §1
# [7] = Homo sapiens, SK-HEP1, SKHep1 cells
SMILES,IC50 [1] [µM],IC50 ([2]; SKHep1 cells) [µM],IC50 [3] [µM],IC50 [4] [µM],IC50 [5] [µM],IC50 [6] [µM],"IC50 [2, 7] [µM]",IC50 ([3]; Homo sapiens) [µM],IC50 ([5]; Homo sapiens) [µM],IC50 ([6]; Homo sapiens) [µM]
COc1ccc2c(c1)C(=O)c1c-2c(N2CCN(C(=O)CNCCNCCN)CC2)nc2ccccc12 [Compound 5qq],> 30,> 30,> 30,> 30,15.5 ± 1.5,> 30,,,,
COc1ccc2c(c1)C(=O)c1c-2c(N2CCN(C(=O)CNCCNCCO)CC2)nc2ccccc12 [Compound 5rr],8.6 ± 0.9,11.9 ± 2.5,7.6 ± 0.1,6.6 ± 1.9,3.5 ± 1.1,6.6 ± 1.3,,,,
COc1ccc2c(c1)C(=O)c1c-2c(N2CCN(C(=O)CNCCCN(C)CCCN)CC2)nc2ccccc12 [Compound 5ss],> 30,21.5 ± 7,10.8 ± 1.1,> 30,12.5 ± 5.2,> 30,,,,
COc1ccc2c(c1)C(=O)c1c-2c(N2CCN(C(=O)CN3CCNCC3)CC2)nc2ccccc12 [Compound 5tt],7.4 ± 1.1,2.2 ± 1.3,4 ± 1.5,7.2 ± 1.8,3.4 ± 0.4,> 30,,,,
COc1ccc2c(c1)C(=O)c1c-2c(N2CCN(C(=O)CN3CCOCC3)CC2)nc2ccccc12 [Compound 5uu],> 30,19.9 ± 10,> 30,> 30,21.4 ± 0.2,18 ± 8.1,,,,
COc1ccc2c(c1)C(=O)c1c-2c(N2CCC(N)C2)nc2ccccc12 (stereo not drawn) [Compound 5v],> 30,26.9 ± 19.5,> 30,> 30,> 30,> 30,,,,
COc1ccc2c(c1)C(=O)c1c-2c(N2CCN(C(=O)CNCCN3CCNCC3)CC2)nc2ccccc12 [Compound 5vv],8.9 ± 0.1,6.4 ± 0.6,5.6 ± 0.9,8.4 ± 2,7.3 ± 0.1,5.4 ± 2,,,,
COc1ccc2c(c1)C(=O)c1c-2c(N2CCC(N)CC2)nc2ccccc12 [Compound 5w],8.4 ± 2.6,2.6 ± 0.9,5.3 ± 1,1.4 ± 0.7,7.4 ± 0.6,1.1 ± 0.3,,,,
COc1ccc2c(c1)C(=O)c1c-2c(N2CCN(C(=O)CCO)CC2)nc2ccccc12 [Compound 5ww],> 30,21.9 ± 6.4,18.5 ± 2.1,> 30,9.5 ± 0.3,10.6 ± 1.6,,,,
CNCCC(=O)N1CCN(c2nc3ccccc3c3c2-c2ccc(OC)cc2C3=O)CC1 [Compound 5xx],6.9 ± 0.7,9.1 ± 4.8,6 ± 1.4,3.8 ± 0.6,8.1 ± 1.1,1.9 ± 0.8,,,,
COc1ccc2c(c1)C(=O)c1c-2c(N2CCNC(C)C2)nc2ccccc12 (stereo not drawn) [Compound 5y],13.4 ± 2.6,2.9 ± 0.5,13.6 ± 5.5,3.3 ± 2.2,7.9 ± 1.2,3.4 ± 1,,,,
COc1ccc2c(c1)C(=O)c1c-2c(N2CCN(C(=O)CCN(C)C)CC2)nc2ccccc12 [Compound 5yy],17 ± 2.9,16.6 ± 2,11.5 ± 1.8,> 30,8.1 ± 1.1,11.7 ± 1.7,,,,
COc1ccc2c(c1)C(=O)c1c-2c(N2CCCNCC2)nc2ccccc12 [Compound 5z],10.2 ± 2.5,6.2 ± 0.7,10.2 ± 6.5,4.9 ± 1.3,7.1 ± 1.1,3 ± 1.3,,,,
COc1ccc2c(c1)C(=O)c1c-2c(N2CCN(C(=O)CCNCCN)CC2)nc2ccccc12 [Compound 5zz],> 30,19 ± 3.2,> 30,> 30,9 ± 2,11.4 ± 0.4,,,,
COc1ccc2c(c1)C(=NO)c1c-2c(OC)nc2ccccc12 [Compound 6e],9.5 ± 2.1,8.7 ± 2.1,> 30,> 30,6.8 ± 1.4,8.4 ± 1.2,,,,
ON=C1c2ccccc2-c2c(N3CCNCC3)nc3ccccc3c21 [Compound 6i],7.3 ± 1.5,4.6 ± 1.1,6.3 ± 1.3,3.5 ± 2.7,7.6 ± 1.4,5.1 ± 0.6,,,,
"CON=C1c2ccccc2-c2c(N3CCNCC3)nc3ccccc3c21 [Compound 6j, 6-(Piperazin-1-yl)-11H-indeno[1,2-c]quinolin-11-one O-methyl oxime]",7.7 ± 1,,,0.4,,,6.1 ± 0.8,7.7 ± 0.5,8.1 ± 2.1,6.2 ± 0.6
ON=C1c2cc(F)ccc2-c2c(N3CCNCC3)nc3ccccc3c21 [Compound 6k],4.4 ± 1.4,0.9 ± 0.3,2.3 ± 0.6,3.3 ± 1.8,> 30,1.7 ± 0.2,,,,
CON=C1c2cc(F)ccc2-c2c(N3CCNCC3)nc3ccccc3c21 [Compound 6l],7.9 ± 0.3,5.9 ± 1.1,7 ± 0.7,3.4 ± 0.3,7.6 ± 3.4,4.9 ± 0.6,,,,
CON=C1c2cc(OC)ccc2-c2c(N3CCN(C(=O)CCN(C)C)CC3)nc3ccccc3c21 [Compound 6m],7 ± 0.5,5 ± 0.8,5.3 ± 1.8,3 ± 2,7.5 ± 1.1,3.6 ± 1.6,,,,
"COc1ccc2c(c1)C(=NO)c1c-2c(N2CCN(C(=O)CCNCCN(C)C)CC2)nc2ccccc12 [Compound 6n, 3-[2-(Dimethylamino)ethylamino]-1-{4-[11-(hydroxyimino)-9-methoxy-11H-indeno[1,2-c]quinolin-6-yl]piperazin-1-yl}propan-1-one]",7.3 ± 0.4,,,> 30,,,> 30,5.6 ± 1.6,7.4 ± 1.2,> 30
CON=C1c2cc(OC)ccc2-c2c(N3CCN(C(=O)CCNCCN(C)C)CC3)nc3ccccc3c21 [Compound 6o],19.1 ± 2.2,11.6 ± 7.3,> 30,4.8 ± 1.6,> 30,11.5 ± 1.3,,,,
"COc1ccc2c(c1)C(=NO)c1c-2c(N2CCNCC2)nc2ccccc12 [Compound 6p, 9-Methoxy-6-(piperazin-1-yl)-11H-indeno[1,2-c]quinolin-11-one oxime]",6.1 ± 0.9,,,2.6 ± 0.9,,,3.8 ± 1.3,1.2 ± 0.9,1.7 ± 0.5,2.7 ± 1.2
CON=C1c2cc(OC)ccc2-c2c(N3CCNCC3)nc3ccccc3c21 [Compound 6q],10.3 ± 0.5,9.3 ± 2.9,8.3 ± 1.3,7.2 ± 3.1,5.2 ± 0.5,10.6 ± 4.4,,,,
"COc1ccc2c(c1)C(=NOCCN(C)C)c1c-2c(N2CCNCC2)nc2ccccc12 [Compound 6r, 9-Methoxy-6-(piperazin-1-yl)-11H-indeno[1,2-c]quinolin-11-one O-2-(dimethylamino)ethyl oxime]",2.4 ± 1.2,,,> 30,,,0.7 ± 0.2,2 ± 1.9,6.8 ± 2,0.5 ± 0.2
"COc1ccc2c(c1)C(=NOCCCN(C)C)c1c-2c(N2CCNCC2)nc2ccccc12 [Compound 6s, 9-Methoxy-6-(piperazin-1-yl)-11H-indeno[1,2-c]quinolin-11-one O-3-(dimethylamino)propyl oxime]",4.9 ± 0.6,,,> 30,,,3 ± 2.8,4.9 ± 0.8,6.8 ± 1.8,0.6 ± 0.3
